ChEMBL document CHEMBL1201862, “PubChem BioAssay data set” (2004)
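Cultured in 96-well plates, cells were exposed to test compound for 48 hours across five concentrations. GI50 is the concentration that inhibits growth by half.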 Activity calls are given as the source filed them. Rule as the data show it: active = GI50 up to about 1.1 µM and inactive = higher.

Key:
Assay in all cases: NCI tumour cell line growth inhibition, 48 h
MOLT-4 = test system: MOLT-4
SW-620 = test system: SW-620
U-251 = test system: U-251
COLO 205 = test system: COLO 205
NCI-H460 = test system: NCI-H460
786-0 = test system: 786-0
UACC-257 = test system: UACC-257
CCRF-CEM = test system: CCRF-CEM
CAKI-1 = test system: CAKI-1
NCI-H23 = test system: NCI-H23
EKVX = test system: EKVX
OVCAR-4 = test system: OVCAR-4
A549 = test system: A549
ACHN = test system: ACHN
KM-20L2 = test system: KM-20L2
SNB-75 = test system: SNB-75
KM12 = test system: KM12
A498 = test system: A498
SK-MEL-2 = test system: SK-MEL-2

Measured: GI50

CC(C)c1ccccc1NC(=O)CCc1n[nH]c(=S)o1
inactive: MOLT-4 > 100 µM | SW-620 > 37.4 µM | U-251 > 75.9 µM | COLO 205 27.2 µM | NCI-H460 > 49.9 µM | 786-0 > 100 µM | UACC-257 > 100 µM | CCRF-CEM > 64.1 µM | CAKI-1 > 100 µM | NCI-H23 > 100 µM | EKVX > 100 µM | OVCAR-4 > 100 µM | A549 99.8 µM | ACHN > 81.7 µM | KM-20L2 > 100 µM | SNB-75 > 66.4 µM | KM12 > 100 µM | A498 > 100 µM

O=C(N/C(=C\c1ccc(/C=C(\NC(=O)c2ccccc2)c2nc3ccccc3[nH]2)cc1)c1nc2ccccc2[nH]1)c1ccccc1
inactive: MOLT-4 > 100 µM | SW-620 > 100 µM | U-251 > 100 µM | COLO 205 > 100 µM | NCI-H460 > 100 µM | SK-MEL-2 > 100 µM | 786-0 > 100 µM | UACC-257 > 100 µM | CCRF-CEM > 100 µM | CAKI-1 > 100 µM | NCI-H23 > 100 µM | EKVX > 100 µM | OVCAR-4 > 100 µM | A549 > 100 µM | ACHN > 100 µM | KM-20L2 > 100 µM | SNB-75 > 100 µM | A498 > 100 µM

CSC(C1c2ccccc2N(c2ccc(C)cc2)C2=NC(=O)N(C)C(=O)C21Cl)S(=O)(=O)c1ccc(C)cc1 (stereo not drawn)
inactive: MOLT-4 6.08 µM | SW-620 30.6 µM | U-251 19.3 µM | COLO 205 19.3 µM | NCI-H460 24 µM | SK-MEL-2 18.8 µM | 786-0 18.5 µM | UACC-257 23.7 µM | CCRF-CEM 10.8 µM | CAKI-1 19.8 µM | NCI-H23 22 µM | EKVX 35.4 µM | OVCAR-4 17.9 µM | A549 34 µM | ACHN 31.4 µM | KM-20L2 21.7 µM | SNB-75 23 µM | A498 33 µM

O=S(=O)(N/N=C/c1ccc(Cl)cc1Cl)c1ccccc1
inactive: MOLT-4 34.7 µM | SW-620 78.9 µM | U-251 91.2 µM | COLO 205 62.4 µM | SK-MEL-2 > 100 µM | 786-0 > 100 µM | UACC-257 > 100 µM | CCRF-CEM 38.5 µM | CAKI-1 59.4 µM | NCI-H23 69.7 µM | EKVX > 100 µM | OVCAR-4 > 100 µM | A549 > 100 µM | ACHN > 100 µM | KM-20L2 85.1 µM | SNB-75 83 µM | KM12 51.2 µM | A498 > 100 µM

COc1cc(CCc2ccncc2)cc(OC)c1OC
inactive: MOLT-4 > 100 µM | SW-620 > 100 µM | U-251 > 100 µM | COLO 205 > 100 µM | NCI-H460 > 100 µM | 786-0 > 100 µM | UACC-257 > 100 µM | CCRF-CEM > 100 µM | CAKI-1 > 100 µM | NCI-H23 > 100 µM | EKVX > 100 µM | OVCAR-4 > 100 µM | A549 > 100 µM | ACHN > 100 µM | KM-20L2 > 100 µM | SNB-75 > 100 µM | KM12 > 100 µM | A498 > 100 µM

Fc1ccc(C2SCc3nc4ccccc4n32)cc1Cl (stereo not drawn)
inactive: MOLT-4 23.2 µM | SW-620 36.1 µM | U-251 19.4 µM | COLO 205 15.3 µM | NCI-H460 29.2 µM | SK-MEL-2 > 10 µM | 786-0 27.7 µM | UACC-257 22.8 µM | CCRF-CEM 25.6 µM | CAKI-1 13 µM | NCI-H23 22.5 µM | EKVX 24.3 µM | OVCAR-4 20 µM | A549 25.8 µM | ACHN 25.5 µM | KM-20L2 29.9 µM | KM12 16.1 µM | A498 33.7 µM
